Key:
[1] = Resazurin-based cell viability assay; set-up: species or system mouse; settings: mouse, mature 3T3-L1 adipocytes; 250 μM (of each compound), 24-hour treatment, 1 μM dexamethasone stimulation; read-out: reduction of cell viability (number of mature adipocytes)
Experimental: (§1) The cell viability of mature adipocytes after treatment with a test compound was measured by means of a fluorimetric Resazurin-based assay. Vital, that is to say metabolically active, cells are capable of converting Resazurin into the fluorescent derivative Resorufin (Strotmann U. J. et al., Ecotox. Environ. Safety 1993, 25, 79-89). 3T3-L1 cells were seeded into 96-well plates (5,000-10,000 cells/well) and, as described above, cultivated to maturity (D8). […] Cells treated as follows served as controls: (1) pure cell culture medium (undifferentiated control), (2) pure differentiation medium (untreated control), (3) DMSO, corresponding to the highest DMSO concentration in the test batches, in differentiation medium (DMSO control), and (4) 150 μg/ml digitonin in DMEM (cell death control). After 24 hours, the incubation medium was discarded and the cells were washed with 100 μl/well of DMEM and then incubated for 2 hours under standard culture conditions with 50 μl/well of Resazurin solution (60 μM in DMEM). Finally, the Resorufin fluorescence was detected by means of a Synergy 2 plate reader (BioTek, Winooski, USA) (excitation: 540 nm, emission: 590 nm, mirror: 550 nm). […] Finally, the cell viability, as a measure of the number and fitness of the cells, was measured by means of a Resazurin assay.

[2] = test system: 3T3-L1 mouse fibroblasts; assay: Nile red assay of cellular lipid content during adipogenesis; assay type: cell-based; settings: for Lipid content: treatment D0-D2, read on D6, stimulated untreated cells = 100%, unstimulated = 0%; for IC50: Mus musculus, 3T3-L1, 144 h, treatment for the entire 6-day adipocyte differentiation (D0-D6), read-out: IC50 value for the inhibition of cellular lipid accumulation
Experimental: The 3T3-L1 mouse fibroblasts were cultivated in Dulbecco's modified Eagle's medium (DMEM) incl. 10% foetal calf serum (FCS) and 2 mM L-glutamine at 37° C., 95% humidity and 5% CO2.
Adipocyte differentiation and maturation was induced as described (Yang J. Y. et al., Obesity 2008, 16, 16-22; Shugart E. C. and Umek R. M., Cell Growth & Differentiation 1997, 8, 1091-1098). The cells were stimulated not only with dexamethasone, as is generally conventional, but also with cortisol, which is more physiological.
The cells were seeded into 96-well plates and cultivated to confluence. Two days after reaching cell confluence (D0=day 0), cell differentiation was induced by adding DMEM with 10% FCS, 167 nM insulin, […] and 1 μM dexamethasone or 200 nM cortisol for two days (D2). The cells were then cultivated for a further two days in DMEM with 10% FCS and 167 nM insulin (D4), followed by cultivation in DMEM/10% FCS for a further four days (D8). Ultimately, >20-30% of the cells were mature adipocytes with accumulated lipid stores.
As an indicator for the degree of adipogenesis, the lipid content of the cells (intracellular lipid droplets) was detected by means of the lipophilic colour reagent Nile red, as described (Yang J. Y. et al., Obesity 2008, 16, 16-22; Greenspan P., The Journal of Cell Biology 1985, 100, 965-973). 3T3-L1 cells (5,000-10,000 cells/well), after reaching confluence, were cultivated for a further two days in 96-well plates (D0). The cells were then treated with guggulsterone and/or glycyrrhetinic acid, individually or in combination, for days D0-D2, D2-D4, D4-D6 and D0-D6 of the adipogenesis (concentration range: 1-200 μM). The medium, with or without test substance(s), was changed or renewed every two days. Cells treated as follows served as controls: (1) pure cell culture medium (undifferentiated control), (2) pure differentiation medium (untreated control), and (3) DMSO, corresponding to the highest DMSO concentration in the test batches, in differentiation medium (DMSO control).
On day 6 (D6), the intracellular lipid accumulation (lipid droplets) was quantified by means of a Nile red assay. To that end, the cell medium was discarded and the cells were washed with 100 μl/well of PBS (pH 7.4). The cells were then incubated for 20 minutes at room temperature with 50 μl/well of Nile red in PBS (10 μg/ml). The lipid content was determined fluorometrically using a Synergy 2 plate reader (BioTek, Winooski, USA) (excitation: 485 nm, emission: 560 nm, mirror: 550 nm). Nile red selectively stains neutral lipids, for example triacylglycerides in intracellular droplets.
The lipid content, that is to say the storage of triacylglycerides in intracellular lipid droplets, is an indicator for the degree of adipogenesis. […] Since the staining reagent Nile red, upon excitation at 485 nm and fluorescence detection at 560 nm, is very selective for neutral lipids, it was thus possible specifically to measure the intracellular accumulation of triacylglycerides during advancing adipogenesis.
On day 6 of the adipogenesis (D6), the accumulation of intracellular lipid droplets was measured fluorometrically by means of a Nile red assay (excitation: 485 nm; emission: 560 nm; 550 nm mirror). The data were normalised and the lipid accumulation is given in percent; unstimulated cells were used as 0% reference, and stimulated but untreated cells were used as 100% reference.

[3] = test system: caspases 3/7; assay: Caspase-Glo 3/7 apoptosis assay in mature adipocytes; assay type: cell-based, mouse; settings: 24 hours
Experimental: In order to evaluate a possible induction of apoptosis in mature adipocytes as a result of the treatment with (Z)-guggulsterone and/or glycyrrhetinic acid, a Caspase-Glo® 3/7 assay kit (Promega, Mannheim, Germany) was used.
3T3-L1 cells were seeded into 96-well plates (5,000-10,000 cells/well) and, as described above, cultivated to maturity (D8). On D8, the mature adipocytes were incubated for 24 hours under standard culture conditions with guggulsterone and/or glycyrrhetinic acid (1-250 μM). Cells treated as follows served as controls: (1) pure cell culture medium (undifferentiated control), (2) pure differentiation medium (untreated control), and (3) DMSO, corresponding to the highest DMSO concentration in the test batches, in differentiation medium (DMSO control). After 24 hours, the incubation medium was discarded, the cells were washed with 100 μl/well of DMEM, and then 150 μl/well of Caspase-Glo® 3/7 reagent in DMEM (1:1, v/v) were added. After incubation for 2 hours at room temperature, the luminescence signal of the reagent was detected by means of a Synergy 2 plate reader (BioTek, Winooski, USA).
The combination of 250 μM of each of the two compounds brought about an increase in caspase 3/7 activity by a factor of 3.5-4.0 as compared with untreated cells (FIG. 2).

[4] = test system: 3T3 pre-adipocytes; assay: Fluorescence microscopy of lipid droplets (Nile red/DAPI); assay type: cell-based, mouse; settings: 100 μM, D0-D6, stimulation with 1 μM dexamethasone
Experimental: […] The incubation medium was then discarded and the cells were washed with PBS and stained with Nile red (10 μg/ml) and DAPI (1 μg/ml) in 50 μl/well of PBS for 20 minutes at room temperature. After removal of the staining solution, the cells were washed with PBS and fixed with 4% paraformaldehyde in PBS for 30 minutes at room temperature. Finally, the cells were washed three times with PBS and mounted on the object slide by means of Fluorescence Mounting Medium (Dako, Carpinteria, USA). The fluorescence microscopy images were taken by using a Zeiss Axio Observer.Z1 with ApoTome (Carl Zeiss Microlmaging, Jena, Germany) using the DAPI and GFP filter settings.

[5] = test system: mature 3T3 adipocytes; assay: Resazurin-based cell viability assay; set-up: species or system mouse; settings: up to 250 μM, 24-hour treatment, 1 μM dexamethasone stimulation
Experimental: as §1

[6] = cited from earlier work

Compound	cytotoxicity at 24 h, 250 μM [1] [%]	Lipid content ([2]; 10 μM) [%]	Lipid content ([2]; 40 μM) [%]	Lipid content ([2]; 100 μM) [%]	IC50 [2] [µM]	increase in caspase 3/7 activity as compared with untreated cells ([3]; 250 μM (of each compound))	lipid droplets versus stimulated untreated cells [4]	effect on cell viability [5]	induction of caspases 3/7 ([3]; dexamethasone or cortisol stimulation)	systemic administration that is not safe [6]
CC1(C)[C@@H](O)CC[C@]2(C)[C@H]3C(=O)C=C4[C@@H]5C[C@@](C)(C(=O)O)CC[C@]5(C)CC[C@@]4(C)[C@]3(C)CC[C@@H]12 [18β-glycyrrhetinic acid]	28	98	91	7	~20	2.5-3.0 factor	significantly fewer and smaller lipid droplets	–	–	–
C/C=C1\C(=O)C[C@H]2[C@@H]3CCC4=CC(=O)CC[C@]4(C)[C@H]3CC[C@]12C [(Z)-guggulsterone]	–	71	26	5	~5	–	significantly fewer and smaller lipid droplets	did not impair the cell viability	no induction of caspases 3/7	–
guggulsterone	–	–	–	–	–	–	–	–	–	more than 30 mg/day

From US20180207078A1, “COMBINATION OF NATURAL SUBSTANCES COMPRISING AT LEAST ONE […] ACID AND AT LEAST ONE GUGGULSTERONE, AND USE THEREOF FOR COSMETIC APPLICATIONS” (OntoChem, GmbH, priority 2015, published 2018)
